# Results reported in patent US11464824B2, “Peptide capable of improving cognitive function” (THE FOOD SCIENCE INSTITUTE FOUNDATION, priority 2018, dated 2022).
# How the values were obtained:
# [1] = test system: male dd Y mice fed a 60% high-fat diet; experiment: Episodic memory evaluation test: object recognition test (ORT); type: in vivo; conditions: YLG 10 mg/kg/day oral for 1 week, test on day 7, FIG. 2
# Description: (§1) Four-week-old male dd Y mice were divided into 3 groups (8 mice per group). The mice were reared for 1 week such that Group 1 was fed a normal diet (3.85 kcal/g: 20 kcal % of protein, 70 kcal % of carbohydrate, and 10 kcal % of lipid), and Group 2 and Group 3 were fed a 60% high-fat diet (5.24 kcal/g: 20 kcal % of protein, 20 kcal % of carbohydrate, and 60 kcal % of lipid). During the period, the YLG tripeptide was orally administered to Group 3 daily in an amount of 10 mg/kg/day.
# (§2) On day 6 and day 7 after the initiation of feeding, two behavioral tests (episodic memory evaluation test: object recognition test (ORT), and a spatial memory evaluation test: object location test (OLT)), which are known as cognitive function evaluation systems, were performed, as well as a hippocampal neurogenesis evaluation test using deoxyuridine bromide (BrdU). On day 7, the brain hippocampus was removed, and a BDNF mRNA expression level in the hippocampus was measured.
# The ORT is a behavioral test that evaluates episodic memory, which is part of cognitive functions. […] First, the mouse was placed in a square open field for 5 minutes for habituation. […] In Trial 2, the approach time of the mouse for each object was measured. […] The cognitive function of the mice was evaluated using the ratio of the approach time for the novel object to the total approach time for both objects as an index. […]
# [2] = test system: male dd Y mice fed a 60% high-fat diet; experiment: Spatial memory evaluation test: object location test (OLT); type: in vivo; conditions: YLG 10 mg/kg/day oral for 1 week, test on day 7, FIG. 4
# Description: as §1, §2
# The OLT is a behavioral test that evaluates spatial memory, which is part of cognitive functions. […] The difference lies in that the location of only one object is changed in Trial 2. […] The cognitive function of the mice was evaluated using the ratio of the approach time for the object placed at the novel location to the total approach time for both objects as an index. […]
# [3] = test system: BrdU-positive cells in the hippocampal dentate gyrus; experiment: Hippocampal neurogenesis evaluation test using deoxyuridine bromide (BrdU); type: in vivo; conditions: high-fat diet mice, YLG 10 mg/kg/day oral, day 7; FIG. 5
# Description: as §1, §2
# On day 6 after the initiation of feeding, 100 mg/kg of deoxyuridine bromide (BrdU) was intraperitoneally administered to the mice of each group (n=4), and after 24 hours (day 7), perfusion fixation was performed using 4% paraformaldehyde. Next, the whole brain was extracted and frozen to prepare frozen sections on a cryostat. […]
# [4] = test system: BDNF mRNA expression in the hippocampus; experiment: Brain-derived neurotrophic factor (BDNF) mRNA expression measurement test; type: in vivo; conditions: high-fat diet mice, YLG 10 mg/kg/day oral, day 7, RT-PCR, standardized with β-actin mRNA; FIG. 6
# Description: as §1, §2
# On day 7 after the initiation of feeding, the mice in each group (n=8) were dissected under anesthesia, and the hippocampus was removed from the brain. The removed hippocampus was stored in RNA later for RNA extraction. […] Then, the brain-derived neurotrophic factor (BDNF) mRNA expression level in the hippocampus was measured by RT-PCR according to a standard method. […]
# [5] = test system: male dd Y mice fed a 60% high-fat diet; experiment: Glucose tolerance test; type: in vivo; conditions: YLG 10 mg/kg/day oral; for blood glucose level in the glucose tolerance test (relative value, level immediately before glucose = 100): day 7
# Description: as §1, with “Twelve-week-old” for “Four-week-old”, “(n=8).” for “(8 mice per group).”, “peptide” for “tripeptide”
# On day 7 after the initiation of feeding, glucose (2 g/kg/p.o.) was administered after fasting for 5 hours. The administration of the YLG peptide on day 7 was performed 2 hours before the glucose administration. Blood was collected from the tail vein immediately before the glucose administration, and 15 minutes, 30 minutes, and 60 minutes after the administration to measure the blood glucose level using a glucose sensor (Nipro Corporation).
# (§3) Tables 1 and 2 show changes in blood glucose level in the glucose tolerance test and changes in blood glucose level in the insulin tolerance test, respectively. The numerical values shown in each table are relative values, taking the blood glucose level immediately before the administration of glucose or insulin as 100.
# [6] = test system: male dd Y mice fed a 60% high-fat diet; experiment: Insulin tolerance test; type: in vivo; conditions: YLG 10 mg/kg/day oral; for blood glucose level in the insulin tolerance test (relative value, level immediately before insulin = 100): day 7
# Description: As in the glucose tolerance test, twelve-week-old male dd Y mice were divided into 3 groups (n=6-7), and the mice were reared for 1 week such that Group 1 was fed a normal diet, and Group 2 and Group 3 were fed a 60% high-fat diet. During the period, the YLG peptide was orally administered to Group 3 daily in an amount of 10 mg/kg/day. On day 7 after the initiation of feeding, insulin (0.5 U/kg/i.p.) was administered after fasting for 5 hours. The administration of the YLG peptide on day 7 was performed 2 hours before the insulin administration. Blood was collected from the tail vein immediately before insulin administration, and 15 minutes, 30 minutes, and 60 minutes after the administration to measure the blood glucose level using a glucose sensor (Nipro Corporation).
# as §3
# [7] = reported in NPL 4; cited from earlier work
substance,measurement,setting,value
Tyr-Leu-Gly [YLG peptide],"ratio of the approach time for the novel object to the total approach time for both objects (ORT, episodic memory)",[1],recovered to a level equal to that of the normal diet group
same,"ratio of the approach time for the object placed at the novel location to the total approach time for both objects (OLT, spatial memory)",[2],recovered to a level equal to that of the normal diet group
same,number of BrdU-positive cells in the hippocampal dentate gyrus (hippocampal neurogenesis),[3],recovered to a level equal to that of the normal diet group
same,BDNF mRNA expression level in the hippocampus,[4],recovered to a level equal to or even greater than that of the normal diet group
same,"blood glucose level in the glucose tolerance test (relative value, level immediately before glucose = 100)",[5]; 15 min after glucose 2 g/kg p.o.,190 ± 14
same,"blood glucose level in the glucose tolerance test (relative value, level immediately before glucose = 100)",[5]; 30 min after glucose 2 g/kg p.o.,169 ± 10
same,"blood glucose level in the glucose tolerance test (relative value, level immediately before glucose = 100)",[5]; 60 min after glucose 2 g/kg p.o.,113 ± 5
same,"effect on the increase in blood glucose level caused by high-fat diet intake (glucose tolerance test, in words)",[5],prevented the increase in blood glucose level
same,"blood glucose level in the insulin tolerance test (relative value, level immediately before insulin = 100)",[6]; 15 min after insulin 0.5 U/kg i.p.,90 ± 2
same,"blood glucose level in the insulin tolerance test (relative value, level immediately before insulin = 100)",[6]; 30 min after insulin 0.5 U/kg i.p.,78 ± 3
same,"blood glucose level in the insulin tolerance test (relative value, level immediately before insulin = 100)",[6]; 60 min after insulin 0.5 U/kg i.p.,70 ± 4
same,"effect on insulin resistance induced by the high-fat diet (glucose and insulin tolerance tests, in words)",[6],improved insulin resistance induced by the high-fat diet
same,anxiolytic effect,[7],anxiolytic effect
